According to patent US11000033B2, “Ketone or oxime compound, and herbicide” (NISSAN CHEMICAL CORPORATION, priority 2014, dated 2021):

Experiments:
Assay type in all cases: in vivo
Scirpus juncoides = assay: Test Example 1: herbicidal activity, application before weed generation in submerged conditions (symbol B); settings: application herbicide amount 320 g/ha
How it was run: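 0–5 visual score, 3 wk post-application. Submerged pots, alluvial soil, water 4 cm; seeds sown mixed, rice at 2.5 leaves transplanted. Emulsion diluted to predetermined dose, applied to water surface at sowing. 25–30 °C greenhouse.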

Leptochloa chinensis = assay: Test Example 3: herbicidal effect by foliage application, Wagner pot (symbol D); settings: application herbicide amount 320 g/ha
How it was run: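 The compound, formulated as an emulsion and diluted with water to a predetermined rate, is applied uniformly to leaves of two-week-old seedlings growing in submerged alluvial soil at 25–30 °C. Rice is included. Each plant is assessed 3 weeks later using defined criteria.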

Setaria viridis = assay: Test Example 4: herbicidal effect by soil treatment (symbol G); settings: application herbicide amount 320 g/ha
How it was run: (§1)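 Seeds were sown in sterilized diluvial soil, covered with about 1.5 cm of soil, and the soil surface was sprayed with a water-diluted emulsion of the compound at a predetermined rate. Plants grew in a greenhouse at 25° C. to 30° C.; effects were scored visually 3 weeks after application.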

Avena fatua [1] = assay: Test Example 4: herbicidal effect by soil treatment (symbol I); settings: application herbicide amount 320 g/ha
How it was run: as §1

Amaranthus retroflexus = assay: Test Example 4: herbicidal effect by soil treatment (symbol N); settings: application herbicide amount 320 g/ha
How it was run: as §1

Galium spurium [2] = assay: Test Example 4: herbicidal effect by soil treatment (symbol Q); settings: application herbicide amount 320 g/ha
How it was run: as §1

soybean = assay: Test Example 4: effect on crop by soil treatment (symbol d); settings: application herbicide amount 320 g/ha
How it was run: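 Seeds were sown in spots on sterilized diluvial soil in a plastic box and covered with about 1.5 cm of soil. Plants were then grown in a greenhouse at 25° C. to 30° C.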

Digitaria ciliaris = assay: Test Example 5: herbicidal effect by foliage application, plastic box (symbol F); settings: 320 g/ha, 3 weeks after application
How it was run: (§2)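 After sowing into sterilized diluvial soil and growing two weeks under glass at 25° C. to 30° C., seedlings receive a uniform foliar spray of diluted emulsion. Damage is judged visually three weeks on.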

[3] = tested on: Echinochloa crus-galli var. crus-galli; assay: Test Example 5: herbicidal effect by foliage application, plastic box (symbol H); settings: 320 g/ha, 3 weeks after application
How it was run: as §2

Avena fatua [4] = assay: Test Example 5: herbicidal effect by foliage application, plastic box (symbol I); settings: 320 g/ha, 3 weeks after application
How it was run: as §2

Apera spica-venti = assay: Test Example 5: herbicidal effect by foliage application, plastic box (symbol L); settings: 320 g/ha, 3 weeks after application
How it was run: as §2

Abutilon theophrasti = assay: Test Example 5: herbicidal effect by foliage application, plastic box (symbol M); settings: 320 g/ha, 3 weeks after application
How it was run: as §2

Chenopodium album = assay: Test Example 5: herbicidal effect by foliage application, plastic box (symbol O); settings: 320 g/ha, 3 weeks after application
How it was run: as §2

Stellaria media = assay: Test Example 5: herbicidal effect by foliage application, plastic box (symbol P); settings: 320 g/ha, 3 weeks after application
How it was run: as §2

Galium spurium [5] = assay: Test Example 5: herbicidal effect by foliage application, plastic box (symbol Q); settings: 320 g/ha, 3 weeks after application
How it was run: as §2

Veronica persica = assay: Test Example 5: herbicidal effect by foliage application, plastic box (symbol R); settings: 320 g/ha, 3 weeks after application
How it was run: as §2

beet = assay: Test Example 5: effect on crop by foliage application, plastic box (symbol f); settings: 320 g/ha, 3 weeks after application
How it was run: (§3)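 Plants were raised from seed in a greenhouse (25° C. to 30° C.) after sowing in a plastic box of sterilized diluvial soil.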

rapeseed = assay: Test Example 5: effect on crop by foliage application, plastic box (symbol g); settings: 320 g/ha, 3 weeks after application
How it was run: as §3

| SMILES | Herbicidal effect grade, B: Scirpus juncoides (Scirpus juncoides) | herbicidal effect on D (Leptochloa chinensis), grade 0-5 (Leptochloa chinensis) | Herbicidal effect grade, G: Setaria viridis (Setaria viridis) | Herbicidal effect grade, I: Avena fatua (Avena fatua [1]) | Herbicidal effect grade, N: Amaranthus retroflexus (Amaranthus retroflexus) | Herbicidal effect grade, Q: Galium spurium (Galium spurium [2]) | Effect on crop grade, d: soybean (soybean) | F: Digitaria ciliaris, herbicidal effect (criteria of Test Example 1) (Digitaria ciliaris) | H: Echinochloa crus-galli var. crus-galli, herbicidal effect (criteria of Test Example 1) [3] | I: Avena fatua, herbicidal effect (criteria of Test Example 1) (Avena fatua [4]) | L: Apera spica-venti, herbicidal effect (criteria of Test Example 1) (Apera spica-venti) | M: Abutilon theophrasti, herbicidal effect (criteria of Test Example 1) (Abutilon theophrasti) | O: Chenopodium album, herbicidal effect (criteria of Test Example 1) (Chenopodium album) | P: Stellaria media, herbicidal effect (criteria of Test Example 1) (Stellaria media) | Q: Galium spurium, herbicidal effect (criteria of Test Example 1) (Galium spurium [5]) | R: Veronica persica, herbicidal effect (criteria of Test Example 1) (Veronica persica) | f: beet, effect on crop (criteria of Test Example 1) (beet) | g: rapeseed, effect on crop (criteria of Test Example 1) (rapeseed) | D (Leptochloa chinensis) herbicidal effect grade (Leptochloa chinensis; Table 24) |
| --- | --- | --- | --- | --- | --- | --- | --- | --- | --- | --- | --- | --- | --- | --- | --- | --- | --- | --- | --- |
| CON=C(C)CC1CC(O)=C(c2c(C)cc(-c3ccc(Cl)cc3Cl)cc2C)C1=O (stereo not drawn) [6-088] | 1 (Herbicidal ratio of 5% or higher and lower than 20%) | 5 (Herbicidal ratio of 90% or more (almost completely withered)) | 5 (Herbicidal ratio of 90% or more (almost completely withered)) | 5 (Herbicidal ratio of 90% or more (almost completely withered)) | 0 (Herbicidal ratio of 5% or lower (almost no effect)) | 4 (Herbicidal ratio of 70% or higher and lower than 90%) | 5 (Herbicidal ratio of 90% or more (almost completely withered)) | 5 (Herbicidal ratio of 90% or more (almost completely withered)) | 5 (Herbicidal ratio of 90% or more (almost completely withered)) | 5 (Herbicidal ratio of 90% or more (almost completely withered)) | 5 (Herbicidal ratio of 90% or more (almost completely withered)) | 3 (Herbicidal ratio of 40% or higher and lower than 70%) | 5 (Herbicidal ratio of 90% or more (almost completely withered)) | 4 (Herbicidal ratio of 70% or higher and lower than 90%) | 4 (Herbicidal ratio of 70% or higher and lower than 90%) | 5 (Herbicidal ratio of 90% or more (almost completely withered)) | 0 (Herbicidal ratio of 5% or lower (almost no effect)) | 4 (Herbicidal ratio of 70% or higher and lower than 90%) | – |
| CON=C(C)CC1CC(OC(=O)COc2ccccc2)=C(c2c(C)cc(C)cc2OC)C1=O (stereo not drawn) [6-091] | 5 (Herbicidal ratio of 90% or more (almost completely withered)) | 5 (Herbicidal ratio of 90% or more (almost completely withered)) | 5 (Herbicidal ratio of 90% or more (almost completely withered)) | 5 (Herbicidal ratio of 90% or more (almost completely withered)) | 4 (Herbicidal ratio of 70% or higher and lower than 90%) | 0 (Herbicidal ratio of 5% or lower (almost no effect)) | 1 (Herbicidal ratio of 5% or higher and lower than 20%) | 5 (Herbicidal ratio of 90% or more (almost completely withered)) | 5 (Herbicidal ratio of 90% or more (almost completely withered)) | 5 (Herbicidal ratio of 90% or more (almost completely withered)) | 5 (Herbicidal ratio of 90% or more (almost completely withered)) | 4 (Herbicidal ratio of 70% or higher and lower than 90%) | 3 (Herbicidal ratio of 40% or higher and lower than 70%) | 4 (Herbicidal ratio of 70% or higher and lower than 90%) | 3 (Herbicidal ratio of 40% or higher and lower than 70%) | 4 (Herbicidal ratio of 70% or higher and lower than 90%) | 3 (Herbicidal ratio of 40% or higher and lower than 70%) | 5 (Herbicidal ratio of 90% or more (almost completely withered)) | – |
| CON=C(C)CC1CC(OC(=O)N2CCOCC2)=C(c2c(C)cc(-c3ccc(Cl)cc3F)cc2C)C1=O (stereo not drawn) [6-089] | 3 (Herbicidal ratio of 40% or higher and lower than 70%) | 5 (Herbicidal ratio of 90% or more (almost completely withered)) | 4 (Herbicidal ratio of 70% or higher and lower than 90%) | 0 (Herbicidal ratio of 5% or lower (almost no effect)) | 0 (Herbicidal ratio of 5% or lower (almost no effect)) | 0 (Herbicidal ratio of 5% or lower (almost no effect)) | 0 (Herbicidal ratio of 5% or lower (almost no effect)) | – | – | 5 (Herbicidal ratio of 90% or more (almost completely withered)) | 5 (Herbicidal ratio of 90% or more (almost completely withered)) | – | 4 (Herbicidal ratio of 70% or higher and lower than 90%) | 4 (Herbicidal ratio of 70% or higher and lower than 90%) | 3 (Herbicidal ratio of 40% or higher and lower than 70%) | 4 (Herbicidal ratio of 70% or higher and lower than 90%) | 0 (Herbicidal ratio of 5% or lower (almost no effect)) | 4 (Herbicidal ratio of 70% or higher and lower than 90%) | – |
| COc1cc(Br)cc(F)c1C1=C(O)CC(CC(C)=O)C1=O (stereo not drawn) [7-029] | 0 (Herbicidal ratio of 5% or lower (almost no effect)) | – | 4 (Herbicidal ratio of 70% or higher and lower than 90%) | 0 (Herbicidal ratio of 5% or lower (almost no effect)) | 0 (Herbicidal ratio of 5% or lower (almost no effect)) | 0 (Herbicidal ratio of 5% or lower (almost no effect)) | 0 (Herbicidal ratio of 5% or lower (almost no effect)) | – | – | 3 (Herbicidal ratio of 40% or higher and lower than 70%) | 3 (Herbicidal ratio of 40% or higher and lower than 70%) | – | 0 (Herbicidal ratio of 5% or lower (almost no effect)) | 0 (Herbicidal ratio of 5% or lower (almost no effect)) | 0 (Herbicidal ratio of 5% or lower (almost no effect)) | 0 (Herbicidal ratio of 5% or lower (almost no effect)) | 0 (Herbicidal ratio of 5% or lower (almost no effect)) | 1 (Herbicidal ratio of 5% or higher and lower than 20%) | 4 (Herbicidal ratio of 70% or higher and lower than 90%) |
